From US20260250325A1, “Antiviral Polypeptide Membrane Fusion Inhibitor, and Preparation Method and Application Thereof” (priority 2025, published 2026)
pIC50: −log10 of the molar value. Where a SMILES comes first, the peptide text is derived from it. The star is where a group is joined. X1 = CC(C)CCCC(C)C1CCC2C3CC=C4CC(OC(=O)CCC(=O)*)CCC4(C)C3CCC12C

Assays:
RSV A long virus strain = assay type: cell-based; details: RSV A long virus strain, HEp-2 cells, plaque reduction, 1 day; read-out: IC50
Description: In this embodiment, an RSV-A long virus strain was used as an infection virus in the present disclosure. The anti-RSV activity of the synthesized polypeptide was determined through CPE detection.
The inhibitory activity of the compounds of Table 1-1-Table 1-5, positive polypeptide in Table 1-11, and positive control T-118 against the RSV-A long virus strain was detected.
(§1) Human Epithelial Pharyngeal Carcinoma Cells (HEp-2) were from the American Type Culture Collection (ATCC), with a catalog number CCL-23. The cells were cultured in a DMEM culture solution in which 10% fetal bovine serum, 1% sodium pyruvate, 1% nonessential amino acids, 2 mM glutamine, 100 U/mL penicillin, and 100 μg/mL streptomycin were added. The RSV A long virus strain was from the ATCC, with a catalog number VR-26.
This study used a plaque reduction experiment to detect the in-vitro activity of a test sample against the RSV A long virus strain. The test sample and a control compound were tested at 8 concentrations in duplicated wells. The HEp-2 cells were digested with trypsin and then diluted to a concentration of 300,000 cells per milliliter by using an experimental culture solution. The diluted cells were added to a 96-well cell test board, with 100 μL per well, corresponding to 30000 cells per well. The cells were cultured overnight in a 37° C. incubator with 5% CO2. On the second day, the test sample was diluted in an experimental culture medium at a fold ratio. The sample diluted at a fold ratio and an equal volume of virus (100 PFU per well) were well mixed and incubated at 37° C. in 5% CO2 for 1 h. Then, the culture solution in the 96-well cell test board was discarded, the sample virus mixed solution (200 μL) was added to the 96-well cell culture plate, and incubated at 37° C. in 5% CO2 for 2 hours. After 2 h, the sample virus mixed solution was discarded, and 200 μL of maintenance culture medium containing 0.8% CMC and the corresponding concentration of the test sample was added. A cell control (cells, without compound treatment or viral infection) and a viral control (cell infection virus, without compound treatment) were set. The cells were cultured for 1 day in the 37° C. incubator with 5% CO2. One day after viral infection, the culture medium was discarded, the cells were fixed with 4% paraformaldehyde, and then permeabilization was performed with 0.5% Triton X-100. After the plate was washed with DPBS, an RSV-specific antibody (RSV antibody, diluted 1:3000) was added and incubated at 37° C. for 1 h. Then, a secondary antibody (donkey anti-goat IgG, diluted 1:500) and incubated at 37° C. for 1 h. The secondary antibody was discarded, a TrueBlue solution was added, dyeing was performed for 10 min; and the plate was washed with running water and then air-dried, and the number of spots in each well was counted by using a microplate imaging counter. Raw data was used for calculating the antiviral activity of the samples.
(§2) The raw data for plaque counts and cell viability tests were used for analyzing the antiviral activity and cytotoxicity of the test samples, respectively. A calculation formula was shown as follows.
% inhibition rate=100−(sample value-cell control average value)/(virus control average value-cell control average value)×100%
(§3) Non-linear fitting analysis was performed on the inhibition rate of the sample by using GraphPad Prism (version 10), so as to calculate the IC50 and CC50 values for the sample.
IC50: in an in-vitro antiviral activity experiment, IC50 represented an inhibition ability indicator of a compound to be tested against the Hep-2 cells infected by the RSV A long virus strain.

[1] = Cytotoxicity test in HEp-2 cells (CCK8 cell viability); assay type: cell-based; details: human; HEp-2 cells, CCK8, 1 day; read-out: CC50
Description: as §1
A cytotoxicity test and an antiviral test were performed in parallel. The HEp-2 cells were inoculated in the microplate at a density of 30,000 cells per well, and cultured overnight in the 37° C. incubator with 5% CO2. On the next day, the diluted test sample was added. The cell control (cells, without compound treatment) and a culture solution control (culture solution only, without cell or compound treatment) were set. A final concentration of DMSO in the culture solution was 0.5%. The cells were cultured for 1 day in the 37° C. incubator with 5% CO2. Cell viability was detected by using a cell viability detection kit CCK8.
as §2
cell survival rate=(sample value-culture medium control average value)/(cell control average value-culture medium control average value)×100
as §3
CC50: in the in-vitro antiviral activity experiment, CC50 was used to measure the toxicity of the compound to be tested to the Hep-2 cells. To be precise, when the compound to be tested was at a specific concentration, 50% of the Hep-2 cells was caused to die, and this concentration was defined as the CC50. A fitting formula was log (inhibitor) vs. response-Variable slope (four parameters).

Row | Structure (SMILES) | pIC50 (RSV A long virus strain) | CC50 at 1 day [1] [µM]
1 | CC[C@H](C)[C@H](NC(=O)[C@H](CCCCN)NC(C)=O)C(=O)N[C@@H](CCC(=O)O)C(=O)N[C@@H](CCC(=O)O)C(=O)N[C@H](C(=O)N[C@@H](CC(N)=O)C(=O)N[C@@H](CCCCN)C(=O)N[C@@H](CCCCN)C(=O)N[C@H](C(=O)N[C@@H](CCC(=O)O)C(=O)N[C@@H](CCC(=O)O)C(=O)N[C@@H](CO)C(=O)N[C@@H](CC(C)C)C(=O)N[C@@H](CCCCN)C(=O)N[C@@H](CCCCN)C(=O)N[C@H](C(=O)N[C@@H](CCC(=O)O)C(=O)N[C@@H](CCC(=O)O)C(=O)N[C@@H](CO)C(=O)N[C@@H](CC(=O)O)C(=O)N[C@@H](CCCCN)C(=O)N[C@@H](CCCCN)C(=O)N[C@@H](CC(C)C)C(=O)N[C@@H](CCC(=O)O)C(=O)N[C@@H](CCC(=O)O)C(=O)N[C@H](C(=O)N[C@@H](CC(N)=O)C(=O)N[C@@H](CCCCN)C(=O)N[C@@H](CCCCN)C(=O)N[C@@H](CC(C)C)C(=O)N[C@@H](CCC(=O)O)C(=O)N[C@@H](C)C(=O)N[C@@H](C)C(=O)N[C@@H](C)C(=O)N[C@@H](CCCCN)C(=O)N[C@@H](CCCCNC(=O)CCC(=O)OC1CCC2(C)C(=CCC3C2CCC2(C)C(C(C)CCCC(C)C)CCC32)C1)C(N)=O)C(C)C)[C@@H](C)CC)[C@@H](C)CC)C(C)C (stereo partly shown) [Compound 10] (Ac-KIEEVNKKIEESLKKIEESDKKLEEVNKKLEAAAKK(X1)-NH2) | 7.74 | 1.4
2 | CC[C@H](C)[C@H](NC(=O)[C@H](CO)NC(=O)[C@H](C)NC(=O)[C@H](CC(=O)O)NC(=O)[C@H](Cc1ccccc1)NC(C)=O)C(=O)N[C@@H](CCC(=O)O)C(=O)N[C@@H](CCC(=O)O)C(=O)N[C@H](C(=O)N[C@@H](CC(N)=O)C(=O)N[C@@H](CCCNC(=N)N)C(=O)N[C@@H](CCCNC(=N)N)C(=O)N[C@H](C(=O)N[C@@H](CCC(=O)O)C(=O)N[C@@H](CCC(=O)O)C(=O)N[C@@H](CO)C(=O)N[C@@H](CC(C)C)C(=O)N[C@@H](CCCNC(=N)N)C(=O)N[C@@H](CCCNC(=N)N)C(=O)N[C@H](C(=O)N[C@@H](CCC(=O)O)C(=O)N[C@@H](CCC(=O)O)C(=O)N[C@@H](CO)C(=O)N[C@@H](CC(=O)O)C(=O)N[C@@H](CCCNC(=N)N)C(=O)N[C@@H](CCCNC(=N)N)C(=O)N[C@@H](CC(C)C)C(=O)N[C@@H](CCC(=O)O)C(=O)N[C@H](C(=O)N[C@@H](CC(N)=O)C(=O)N[C@@H](CCCCN)C(=O)N[C@@H](CCCCN)C(=O)N[C@@H](C)C(=O)NCC(=O)N[C@@H](CO)C(=O)NCC(=O)N[C@@H](CO)C(=O)NCC(=O)N[C@@H](CCCCNC(=O)CCC(=O)OC1CCC2(C)C(=CCC3C2CCC2(C)C(C(C)CCCC(C)C)CCC32)C1)C(N)=O)C(C)C)[C@@H](C)CC)[C@@H](C)CC)C(C)C (stereo partly shown) [Compound 12] (Ac-FDASIEEVNRRIEESLRRIEESDRRLEVNKKAGSGSGK(X1)-NH2) | 7.55 | > 8
3 | CC[C@H](C)[C@H](NC(=O)[C@H](CO)NC(=O)[C@H](C)NC(=O)[C@H](CC(=O)O)NC(=O)[C@H](Cc1ccccc1)NC(C)=O)C(=O)N[C@@H](CCC(=O)O)C(=O)N[C@@H](CCC(=O)O)C(=O)N[C@H](C(=O)N[C@@H](CC(N)=O)C(=O)N[C@@H](CCCNC(=N)N)C(=O)N[C@@H](CCCNC(=N)N)C(=O)N[C@H](C(=O)N[C@@H](CCC(=O)O)C(=O)N[C@@H](CCC(=O)O)C(=O)N[C@@H](CO)C(=O)N[C@@H](CC(C)C)C(=O)N[C@@H](CCCNC(=N)N)C(=O)N[C@@H](CCCNC(=N)N)C(=O)N[C@H](C(=O)N[C@@H](CCC(=O)O)C(=O)N[C@@H](CCC(=O)O)C(=O)N[C@@H](CO)C(=O)N[C@@H](CC(=O)O)C(=O)N[C@@H](CCCNC(=N)N)C(=O)N[C@@H](CCCNC(=N)N)C(=O)N[C@@H](CC(C)C)C(=O)N[C@@H](CCC(=O)O)C(=O)N[C@@H](C)C(=O)N[C@@H](C)C(=O)N[C@@H](C)C(=O)N[C@@H](CCCCN)C(=O)N[C@@H](CCCCNC(=O)CCC(=O)OC1CCC2(C)C(=CCC3C2CCC2(C)C(C(C)CCCC(C)C)CCC32)C1)C(N)=O)[C@@H](C)CC)[C@@H](C)CC)C(C)C (stereo partly shown) [Compound 19] (Ac-FDASIEEVNRRIEESLRRIEESDRRLEAAAKK(X1)-NH2) | 7.79 | 8.3
4 | CC[C@H](C)[C@H](NC(=O)[C@H](CCCCN)NC(=O)[C@H](CCC(=O)O)NC(=O)[C@H](CC(C)C)NC(=O)[C@H](CO)NC(=O)[C@H](CCC(N)=O)NC(=O)[C@H](CC(N)=O)NC(=O)[C@@H](NC(=O)[C@H](CCCCN)NC(=O)[C@H](CCC(=O)O)NC(=O)[C@H](CC(N)=O)NC(=O)[C@@H](NC(=O)[C@H](CCC(N)=O)NC(=O)[C@H](CO)NC(=O)[C@H](C)NC(=O)[C@H](CC(=O)O)NC(=O)[C@H](Cc1ccccc1)NC(=O)[C@@H](NC(=O)[C@H](CC(C)C)NC(=O)[C@H](CCC(=O)O)NC(=O)[C@H](CC(=O)O)NC(=O)[C@H](Cc1ccc(O)cc1)NC(C)=O)C(C)C)C(C)C)[C@@H](C)CC)C(=O)N[C@@H](CCCNC(=N)N)C(=O)N[C@@H](CCCCN)C(=O)N[C@@H](CO)C(=O)N[C@@H](CC(=O)O)C(=O)N[C@@H](CCC(=O)O)C(=O)N[C@@H](CC(C)C)C(=O)N[C@@H](CC(C)C)C(=O)N[C@@H](Cc1c[nH]cn1)C(=O)N[C@@H](CC(N)=O)C(=O)N[C@H](C(N)=O)C(C)C [Compound 23] (Ac-YDELVFDASQVNEKINQSLEKIRKSDELLHNV-NH2) | 5.63 | > 8
5 | CC[C@H](C)[C@H](NC(=O)[C@H](Cc1ccccc1)NC(=O)[C@H](C)NC(=O)[C@H](CC(C)C)NC(=O)[C@H](CO)NC(=O)[C@H](CCC(N)=O)NC(=O)[C@H](CC(N)=O)NC(=O)[C@@H](NC(=O)[C@H](CCCCN)NC(=O)[C@H](CCC(=O)O)NC(=O)[C@H](CC(N)=O)NC(=O)[C@@H](NC(=O)[C@H](CCC(N)=O)NC(=O)[C@H](CCC(=O)O)NC(=O)[C@H](CC(=O)O)NC(=O)[C@H](CO)NC(C)=O)C(C)C)[C@@H](C)CC)C(=O)N[C@@H](CCCNC(=N)N)C(=O)N[C@@H](CCCNC(=N)N)C(=O)N[C@H](C(=O)N[C@@H](CCCNC(=N)N)C(=O)N[C@@H](CCCCN)C(=O)N[C@@H](CC(C)C)C(=O)N[C@@H](CC(C)C)C(=O)N[C@@H](Cc1c[nH]cn1)C(=O)N[C@@H](CC(N)=O)C(=O)N[C@@H](CCC(=O)O)C(=O)N[C@@H](C)C(=O)N[C@@H](C)C(=O)N[C@@H](C)C(=O)N[C@@H](CCCCN)C(=O)N[C@@H](CCCCNC(=O)CCC(=O)OC1CCC2(C)C(=CCC3C2CCC2(C)C(C(C)CCCC(C)C)CCC32)C1)C(N)=O)[C@@H](C)CC (stereo partly shown) [Compound 31] (Ac-SDEQVNEKINQSLAFIRRIRKLLHNEAAAKK(X1)-NH2) | 5.65 | > 8
